ChEMBL document CHEMBL1132053, “Synthesis and activity of 2-(sulfonamido)methyl-carbapenems: discovery of a novel, anti-MRSA 1,8-naphthosultam pharmacophore” (Bioorg Med Chem Lett, 1999)
pIC50: −log10 of the molar value. ≈ marks a conversion by molar mass, not a printed value.

What was measured:
Staphylococcus aureus [1] = test: Antibacterial activity against MRSA strain COL; type: functional
Enterococcus faecium = test: Antibacterial activity against MDREFm; type: functional
Enterococcus faecalis = test: Antibacterial activity against VREFs; type: functional
MecA = molecular target: T1, MecA (Staphylococcus aureus, UniProt Q7DHH4); test: Compound was tested for its binding affinity towards Penicillin-binding protein 2a (PBP2a) using […]-benzylpenicillin
T1 sequence (Q7DHH4 whole entry): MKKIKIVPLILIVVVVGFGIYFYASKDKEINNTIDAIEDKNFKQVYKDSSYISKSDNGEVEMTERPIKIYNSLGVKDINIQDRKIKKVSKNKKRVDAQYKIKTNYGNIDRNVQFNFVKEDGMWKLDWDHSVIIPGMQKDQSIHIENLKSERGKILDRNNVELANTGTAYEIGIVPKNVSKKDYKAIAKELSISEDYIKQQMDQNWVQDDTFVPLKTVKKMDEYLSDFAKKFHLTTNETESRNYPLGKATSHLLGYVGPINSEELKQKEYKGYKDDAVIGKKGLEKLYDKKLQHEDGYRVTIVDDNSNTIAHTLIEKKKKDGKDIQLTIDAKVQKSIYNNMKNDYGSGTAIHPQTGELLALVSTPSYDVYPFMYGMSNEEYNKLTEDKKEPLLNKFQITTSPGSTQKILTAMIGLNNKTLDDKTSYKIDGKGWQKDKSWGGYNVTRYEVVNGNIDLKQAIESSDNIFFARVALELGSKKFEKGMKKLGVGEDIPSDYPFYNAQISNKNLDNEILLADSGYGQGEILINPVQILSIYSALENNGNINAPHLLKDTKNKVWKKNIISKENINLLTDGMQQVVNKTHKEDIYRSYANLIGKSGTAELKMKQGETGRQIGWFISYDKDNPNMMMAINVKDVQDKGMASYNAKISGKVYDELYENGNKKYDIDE

Staphylococcus sp. = test: (§1) Antibacterial activity against MRCNS; type: functional
Streptococcus pneumoniae = test: Antibacterial activity against PRSP; type: functional
Staphylococcus aureus [2] = test: Antibacterial activity against MRSA; type: functional
Staphylococcus aureus [3] = test: Antibacterial activity against for MRSA strain COL; type: functional
Staphylococcus = test: as §1; type: functional

Structure (SMILES)	MIC (Staphylococcus aureus [1]) [µg/mL]	MIC (Staphylococcus aureus [3]) [µg/mL]	MIC (Staphylococcus) [µg/mL]	MIC (Enterococcus faecium) [µg/mL]	MIC (Enterococcus faecalis) [µg/mL]	pIC50 (MecA)	MIC (Staphylococcus sp.) [µg/mL]	MIC (Streptococcus pneumoniae) [µg/mL]	MIC (Staphylococcus aureus [2]) [µg/mL]
C[C@@H](O)[C@H]1C(=O)N2C(C(=O)[O-])=C(CN3C(=O)c4cccc5cccc(c45)S3(=O)=O)[C@H](C)[C@H]12.[Na+]	8	–	–	32	8	5.30	8	0.25	4
C[C@@H](O)[C@H]1C(=O)N2C(C(=O)[O-])=C(CN3c4cccc5cccc(c45)N(C)S3(=O)=O)[C@H](C)[C@H]12.[Na+]	4	–	–	64	64	4.83	7	1	1.5
C[C@@H](O)[C@H]1C(=O)N2C(C(=O)[O-])=C(CN3Cc4cccc5cccc(c45)S3(=O)=O)[C@H](C)[C@H]12.[Na+]	16	–	–	40.3	8	4.33	16	0.12	8.5
C[C@@H](O)[C@H]1C(=O)N2C(C(=O)[O-])=C(CN3Cc4c(ccc5ccccc45)S3(=O)=O)[C@H](C)[C@H]12.[Na+]	8	–	–	50.8	8	4.42	10.6	0.17	3.4
C[C@@H](O)[C@H]1C(=O)N2C(C(=O)[O-])=C(CN3C(=O)c4c(ccc5ccccc45)S3(=O)=O)[C@H](C)[C@H]12.[Na+]	4	–	–	20.2	8	5.48	5.3	0.25	1.3
C[C@@H](O)[C@H]1C(=O)N2C(C(=O)[O-])=C(CN3C(=O)c4cccc5cccc(c45)C3=O)[C@H](C)[C@H]12.[Na+]	32	–	–	64	24.3	5.50	24.3	1.4	12
CN[C@H](CC(C)C)C(=O)N[C@H]1C(=O)N[C@@H](CC(N)=O)C(=O)N[C@H]2C(=O)N[C@H]3C(=O)N[C@H](C(=O)N[C@H](C(=O)O)c4cc(O)cc(O)c4-c4cc3ccc4O)[C@H](O)c3ccc(c(Cl)c3)Oc3cc2cc(c3O[C@@H]2O[C@H](CO)[C@@H](O)[C@H](O)[C@H]2O[C@H]2C[C@](C)(N)[C@H](O)[C@H](C)O2)Oc2ccc(cc2Cl)[C@H]1O [VANCOMYCIN]	–	–	–	20.2 (≈ 13.9 µM)	> 64	–	1.7 (≈ 1.17 µM)	0.35 (≈ 0.242 µM)	0.9 (≈ 0.621 µM)
C[C@@H](O)[C@H]1C(=O)N2C(C(=O)[O-])=C(CN(c3ccccc3)S(=O)(=O)c3ccc4ccccc4c3)[C@H](C)[C@H]12.[Na+]	64	–	–	–	–	–	–	–	–
C[C@@H](O)[C@H]1C(=O)N2C(C(=O)[O-])=C(CN(c3ccc4ccccc4c3)S(=O)(=O)c3ccccc3)[C@H](C)[C@H]12.[Na+]	64	–	–	–	–	–	–	–	–
C[C@@H](O)[C@H]1C(=O)N2C(C(=O)O)=C(SCCNC=N)C[C@H]12 [IMIPENEM ANHYDROUS]	–	–	–	> 64	8 (≈ 26.7 µM)	3.20	> 64	0.25 (≈ 0.835 µM)	> 40
C[C@@H](O)[C@H]1C(=O)N2C(C(=O)[O-])=C(CN(c3ccc4ccccc4c3)S(C)(=O)=O)[C@H](C)[C@H]12.[Na+]	> 64	–	–	–	–	–	–	–	–

Further lines, with some results ahead:

MIC (Staphylococcus aureus [1]) [µg/mL]	MIC (Staphylococcus aureus [3]) [µg/mL]	MIC (Staphylococcus) [µg/mL]	Structure (SMILES)	MIC (Enterococcus faecium) [µg/mL]	MIC (Enterococcus faecalis) [µg/mL]	pIC50 (MecA)	MIC (Staphylococcus sp.) [µg/mL]	MIC (Streptococcus pneumoniae) [µg/mL]	MIC (Staphylococcus aureus [2]) [µg/mL]
> 64	–	–	C[C@@H](O)[C@H]1C(=O)N2C(C(=O)[O-])=C(CN(c3cccc4c3-c3ccccc3C4=O)S(C)(=O)=O)[C@H](C)[C@H]12.[Na+]	–	–	–	–	–	–
16	–	–	C[C@@H](O)[C@H]1C(=O)N2C(C(=O)[O-])=C(CN3c4ccccc4CS3(=O)=O)[C@H](C)[C@H]12.[Na+]	–	–	–	–	–	–
64	–	–	C[C@@H](O)[C@H]1C(=O)N2C(C(=O)[O-])=C(CN3Cc4ccccc4S3(=O)=O)[C@H](C)[C@H]12.[Na+]	–	–	–	–	–	–
64	–	–	C[C@@H](O)[C@H]1C(=O)N2C(C(=O)[O-])=C(CN(c3ccccc3)S(=O)(=O)c3ccccc3)[C@H](C)[C@H]12.[Na+]	–	–	–	–	–	–
8	–	–	C[C@@H](O)[C@H]1C(=O)N2C(C(=O)[O-])=C(CN3c4ccccc4-c4ccccc4S3(=O)=O)[C@H](C)[C@H]12.[Na+]	–	–	–	–	–	–
16	–	–	C[C@@H](O)[C@H]1C(=O)N2C(C(=O)[O-])=C(CN3C(=O)c4ccccc4S3(=O)=O)[C@H](C)[C@H]12.[Na+]	–	–	–	–	–	–
–	> 64	–	C[C@@H](O)[C@H]1C(=O)N2C(C(=O)[O-])=C(CN(c3cccc4ccccc34)S(C)(=O)=O)[C@H](C)[C@H]12.[Na+]	–	–	–	–	–	–
2	–	–	C[C@@H](O)[C@H]1C(=O)N2C(C(=O)[O-])=C(CN3c4cccc5cccc(c45)S3(=O)=O)[C@H](C)[C@H]12.[Na+]	–	–	–	–	–	–
32	–	21.1	C[C@@H](O)[C@H]1C(=O)N2C(C(=O)[O-])=C(CN3C(=O)c4cccc5cccc3c45)[C@H](C)[C@H]12.[Na+]	64	64	–	–	4	12
